ChEMBL document CHEMBL5620360, “Design, synthesis and biological evaluation of 4-(4-aminophenoxy)picolinamide derivatives as potential antitumor agents” (Eur J Med Chem, 2023)
Active and inactive are the calls of the source. No cut-off for these calls is given here.

How the values were obtained:
[1] = Oral bioavailability in Sprague-Dawley rat at 10 mg/kg by LC-MS/MS analysis; assay type: ADME, organism-based; details: in vivo
A549 [2] = test: cells; details: Homo sapiens, A549, 72 h
[3] = Tmax in Sprague-Dawley rat at 10 mg/kg, po by LC-MS/MS analysis; assay type: ADME, organism-based; details: in vivo
A549 [4] = test: Induction of morphological changes in human A549 cells assessed as reduction in cell number at 1.1 uM measured after 12 hrs by acridine orange staining based fluorescence microscopy; assay type: functional
[5] = molecular target: Hepatocyte growth factor receptor (Homo sapiens, UniProt P08581); test: Inhibition of c-Met (unknown origin)
Chain of Hepatocyte growth factor receptor (P08581 whole entry): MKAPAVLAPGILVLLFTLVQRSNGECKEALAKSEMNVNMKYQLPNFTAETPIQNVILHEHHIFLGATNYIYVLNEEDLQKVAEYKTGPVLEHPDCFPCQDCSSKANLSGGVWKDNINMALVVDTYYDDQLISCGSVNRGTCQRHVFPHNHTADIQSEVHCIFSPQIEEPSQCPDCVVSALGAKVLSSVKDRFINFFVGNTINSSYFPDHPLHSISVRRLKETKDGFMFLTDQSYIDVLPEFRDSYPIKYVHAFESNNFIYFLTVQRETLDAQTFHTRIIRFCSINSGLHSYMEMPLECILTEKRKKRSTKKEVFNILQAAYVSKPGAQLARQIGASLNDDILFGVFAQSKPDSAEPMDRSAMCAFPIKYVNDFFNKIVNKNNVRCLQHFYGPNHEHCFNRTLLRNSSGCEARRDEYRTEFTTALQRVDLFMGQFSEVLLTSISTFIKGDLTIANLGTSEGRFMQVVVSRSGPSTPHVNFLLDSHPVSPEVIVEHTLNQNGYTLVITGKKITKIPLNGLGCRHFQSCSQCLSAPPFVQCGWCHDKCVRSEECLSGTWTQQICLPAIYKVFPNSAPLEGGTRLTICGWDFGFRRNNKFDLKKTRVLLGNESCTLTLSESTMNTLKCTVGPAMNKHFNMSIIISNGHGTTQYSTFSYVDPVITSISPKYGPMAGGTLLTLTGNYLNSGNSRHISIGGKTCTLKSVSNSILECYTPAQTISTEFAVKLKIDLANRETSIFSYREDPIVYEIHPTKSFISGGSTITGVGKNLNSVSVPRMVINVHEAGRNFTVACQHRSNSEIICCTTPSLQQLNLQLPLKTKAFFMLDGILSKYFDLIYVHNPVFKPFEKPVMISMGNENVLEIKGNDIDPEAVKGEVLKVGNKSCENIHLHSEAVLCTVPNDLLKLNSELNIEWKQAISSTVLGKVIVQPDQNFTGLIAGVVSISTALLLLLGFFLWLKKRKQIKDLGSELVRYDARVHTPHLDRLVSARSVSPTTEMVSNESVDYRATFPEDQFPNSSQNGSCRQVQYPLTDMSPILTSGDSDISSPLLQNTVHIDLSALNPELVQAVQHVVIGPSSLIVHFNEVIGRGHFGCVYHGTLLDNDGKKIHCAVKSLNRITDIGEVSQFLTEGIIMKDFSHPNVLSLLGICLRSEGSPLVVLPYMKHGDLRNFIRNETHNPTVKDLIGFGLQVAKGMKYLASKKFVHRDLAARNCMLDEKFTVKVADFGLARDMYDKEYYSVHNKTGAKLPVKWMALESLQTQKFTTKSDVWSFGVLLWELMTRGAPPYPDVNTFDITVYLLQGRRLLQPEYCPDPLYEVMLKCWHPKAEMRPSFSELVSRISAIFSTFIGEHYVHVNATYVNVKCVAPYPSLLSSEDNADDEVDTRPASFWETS

A549 [6] = test: Induction of apoptosis in human A549 cells assessed as early apoptotic cells at 10 uM measured after 24 hrs by AnnexinV-FITC/PI staining based flow cytometry (reference value: 1.26%); assay type: functional
A549 [7] = test: Induction of apoptosis in human A549 cells assessed as late apoptotic cells at 10 uM measured after 24 hrs by AnnexinV-FITC/PI staining based flow cytometry (reference value: 1.47%); assay type: functional
A549 [8] = test: Induction of cell cycle arrest in human A549 cells assessed as accumulation of cells at S phase at 5 uM incubated for 24 hrs by propidium iodide staining based flow cytometry (reference value: 38.18%); assay type: functional
[9] = molecular target: Vascular endothelial growth factor receptor 2 (Homo sapiens, UniProt P35968); test: Inhibition of VEGFR2 (unknown origin)
Chain of Vascular endothelial growth factor receptor 2 (P35968 whole entry): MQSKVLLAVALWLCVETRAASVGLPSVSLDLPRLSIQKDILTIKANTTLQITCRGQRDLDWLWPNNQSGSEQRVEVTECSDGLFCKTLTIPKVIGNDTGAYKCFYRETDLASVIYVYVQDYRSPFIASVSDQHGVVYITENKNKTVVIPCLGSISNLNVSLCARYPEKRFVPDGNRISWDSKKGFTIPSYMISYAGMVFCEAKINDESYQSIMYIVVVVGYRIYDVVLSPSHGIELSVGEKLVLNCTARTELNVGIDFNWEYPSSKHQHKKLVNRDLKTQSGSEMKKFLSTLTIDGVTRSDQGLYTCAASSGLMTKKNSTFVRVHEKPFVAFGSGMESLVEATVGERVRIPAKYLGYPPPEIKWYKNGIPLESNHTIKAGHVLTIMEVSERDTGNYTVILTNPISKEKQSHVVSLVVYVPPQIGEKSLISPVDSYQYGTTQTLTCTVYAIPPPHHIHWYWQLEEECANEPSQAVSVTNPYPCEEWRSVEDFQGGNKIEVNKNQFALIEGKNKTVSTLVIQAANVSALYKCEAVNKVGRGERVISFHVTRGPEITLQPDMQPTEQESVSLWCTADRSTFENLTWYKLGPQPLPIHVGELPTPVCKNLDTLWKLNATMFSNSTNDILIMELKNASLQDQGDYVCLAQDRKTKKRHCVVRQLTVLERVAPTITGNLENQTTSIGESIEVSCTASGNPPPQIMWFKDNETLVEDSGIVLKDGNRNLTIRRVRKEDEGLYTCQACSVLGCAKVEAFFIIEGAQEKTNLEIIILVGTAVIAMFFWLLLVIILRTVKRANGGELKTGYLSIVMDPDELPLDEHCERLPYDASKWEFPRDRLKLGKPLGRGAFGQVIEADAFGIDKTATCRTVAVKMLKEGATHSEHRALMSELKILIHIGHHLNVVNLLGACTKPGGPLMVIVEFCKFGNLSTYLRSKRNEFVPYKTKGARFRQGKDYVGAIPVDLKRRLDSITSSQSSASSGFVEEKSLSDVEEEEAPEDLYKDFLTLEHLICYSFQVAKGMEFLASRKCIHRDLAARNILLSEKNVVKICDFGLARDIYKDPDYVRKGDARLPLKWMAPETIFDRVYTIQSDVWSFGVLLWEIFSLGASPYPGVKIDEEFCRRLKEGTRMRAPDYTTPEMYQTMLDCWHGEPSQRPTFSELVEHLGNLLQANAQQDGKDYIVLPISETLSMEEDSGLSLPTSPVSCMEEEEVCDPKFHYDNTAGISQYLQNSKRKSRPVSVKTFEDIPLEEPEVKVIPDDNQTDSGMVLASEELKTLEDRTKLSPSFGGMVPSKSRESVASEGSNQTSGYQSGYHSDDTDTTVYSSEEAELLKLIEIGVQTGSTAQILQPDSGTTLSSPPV

[10] = Cmax in Sprague-Dawley rat at 10 mg/kg, po by LC-MS/MS analysis; assay type: ADME, organism-based; details: in vivo
[11] = Half life in Sprague-Dawley rat at 1 mg/kg, iv by LC-MS/MS analysis; assay type: ADME, organism-based; details: in vivo
[12] = AUC(0 to infinity) in Sprague-Dawley rat at 1 mg/kg, iv by LC-MS/MS analysis; assay type: ADME, organism-based; details: in vivo
A549 [13] = test: Induction of cell cycle arrest in human A549 cells assessed as accumulation of cells at G1 phase at 10 uM incubated for 24 hrs by propidium iodide staining based flow cytometry (reference value: 54.46%); assay type: functional
A549 [14] = test: Induction of apoptosis in human A549 cells assessed as necrotic cells at 10 uM measured after 24 hrs by AnnexinV-FITC/PI staining based flow cytometry (reference value: 4.01%); assay type: functional
A549 [15] = test: Induction of morphological changes in human A549 cells assessed as abnormal cell morphology at 1.1 uM measured after 12 hrs by acridine orange staining based fluorescence microscopy; assay type: functional
A549 [16] = test: Induction of cell cycle arrest in human A549 cells assessed as accumulation of cells at G2 phase at […] incubated for 24 hrs by propidium iodide staining based flow cytometry (reference value: 7.36%); assay type: functional; details: dose 2.5 µM

bioavailability [1]: 13.2% | IC50 (A549 [2]): 260 nM | Tmax [3]: 2.7 h | IC50 [5]: 46.5 nM | IC50 [9]: > 100000 nM | Cmax [10]: 390 ng/mL | half-life [11]: 2.5 h | AUC(0-inf) [12]: 2870 ng·h/mL
SMILES: O=C(NCCCN1CCOCC1)c1cc(Oc2ccc(NC(=O)c3cn(-c4ccc(F)c(Cl)c4)c4ncccc4c3=O)cc2F)ccn1
Activity (A549 [4]): Active | Activity (A549 [6]): 5.57% | Activity (A549 [7]): 8.25% | Activity (A549 [8]): 30.85% | Activity (A549 [13]): 58.67% | Activity (A549 [14]): 11.9% | Activity (A549 [15]): Active | Activity (A549 [16]): 8.89%
